Consider 19 compounds from patent US6172079A, “5-substituted-3-oxadiazolyl-1,6-naphthyridin-2(1H)-one derivatives” (Dainippon Pharmaceutical Co., Ltd., priority 1997, dated 2001).

The subject of assay [1] is ddY male mice (pentylentetrazol-induced convulsion). As to the kind of experiment: Test of Increasing Activity on Pentylentetrazol-induced Convulsion. Type of assay: in vivo. The note with it: Mus musculus, 0.5 h, po, pentylentetrazol 70 mg/kg s.c. 15 min later, read-out: Effects (number of animals) with increased pentylentetrazol-induced convulsion (converted). The method, then: It is known that benzodiazepine receptor inverse agonists increase convulsion induced by pentylentetrazol [cf. Progress in Neuro-Psychopharmacology and Biological Psychiatry, vol. […] Some compounds of the present invention were tested as to the activities of increasing the pentylentetrazol-induced convulsion.
A test compound (compounds disclosed in working examples) was orally administered to ddY male mice (weight; 22-25 g, five mice/group) in an amount of 5-100 mg/kg. […] The effects were evaluated by the number of mice among five mice, of which the convulsion increasing effects were observed.

The test system of assay [2] is GABAA receptor complex (TBPS binding). As to the kind of experiment: TBPS Binding Assay. Details: species or system Wistar rats. The note with it: [35S]TBPS 0.4 nM, GABA 1 μM, rat cerebral cortex membrane, +% inverse agonistic, 0% antagonistic. As to the method: The TBPS (t-butylbicyclophosphonothionate) binding assay and the preparation of the membrane specimen were done in a similar manner to the method of Biggio, G. et al. [cf. European Journal of Pharmacology, vol.
That is, to the cerebral cortex was added a 50-fold volume of an ice-cooled buffer (a 50 mM Tris-citrate buffer containing 100 mM sodium chloride, pH 7.4) and the mixture was homogenized at 0-4° C. and then centrifuged at 20,000 g for 20 minutes. The pellets thus obtained were once subjected to homogenization in a buffer and centrifugation by the same procedure as above and then kept in freezed state at -80° C. for more than 20 hours. On the test day, the freezed pellets were thawed and then subjected twice to the homogenization-centrifugation procedure as described above.
Subsequently, the filter was moved into a liquid scintillation vial and thereto was added a liquid scintillation cocktail (ACS-II, manufactured by Amersham, USA, 10 ml) and allowed to stand for a fixed period of time. […] Separately, the same procedures were repeated in the presence of Picrotoxin to determine the non-specific binding amount. The non-specific binding amount was deducted from the total binding amount to give the specific binding amount. The binding activity of the test compound was calculated by a variation rate, i.e., a rate of the specific binding amount of the test compound to the specific binding amount in control (using a solvent).

Assay [3] addresses benzodiazepine receptor. As to the kind of experiment: Benzodiazepine Receptor Binding Assay. The note with it: read-out: BZP-receptor Binding IC50; [3H]-diazepam 1.5 nM; rat brain crude synaptosome membrane; 0° C., 20 min.
Assay [4] has as its system GABAA receptor. The note with it: background statement; cited from earlier work.

What is called IC50 is the concentration at which inhibition is half-maximal. `CCc1nc(-c2cc3c(-c4cccs4)nccc3[nH]c2=O)no1` [Example 103, 3-(5-Ethyl-1,2,4-oxadiazol-3-yl)-5-(2-thienyl)-1,6-naphthyridin-2(1H)-one]: in assay [1], the responders at 10 mg/kg was 40%. In assay [2], the “TBPS binding Variation Rate” value is listed as 21%. The half-maximal inhibitory concentration (IC50) in assay [3] is 0.83 nM.

On to `O=C1CN=C(c2ccccc2Cl)c2cc([N+](=O)[O-])ccc2N1` [chlonazepam], for which, in assay [4], the “uptake of Cl ion into cells” value is “decreased”.

In the case of `O=c1[nH]c2ccnc(-c3ccsc3)c2cc1-c1nc(C2CC2)no1` [Example 247, 3-(3-Cyclopropyl-1,2,4-oxadiazol-5-yl)-5-(3-thienyl)-1,6-naphthyridin-2(1H)-one], in assay [1], the responders at 50 mg/kg is 80%. Besides, in assay [2], the “TBPS binding Variation Rate” value came to 16%. Further, in assay [3], the half-maximal inhibitory concentration (IC50) was found to be 1.39 nM.

In the case of `CCc1noc(-c2cc3c(-c4cccc(F)c4)nccc3[nH]c2=O)n1` [Example 200, 3-(3-Ethyl-1,2,4-oxadiazol-5-yl)-5-(3-fluorophenyl)-1,6-naphthyridin-2(1H)-one], the responders at 50 mg/kg in assay [1] was 80%. Besides, in assay [2], the “TBPS binding Variation Rate” value came to 17%. Also, the IC50 in assay [3] was determined as 0.92 nM.

Turning to `COc1cccc(-c2nccc3[nH]c(=O)c(-c4noc(C)n4)cc23)c1` [Example 86, 3-(5-methyl-1,2,4-oxadiazol-3-yl)-5-(3-methoxyphenyl)-1,6-naphthyridin-2(1H)-one], the responders at 10 mg/kg in assay [1] was 40%. In assay [2], the “TBPS binding Variation Rate” value came out at 12%. Also, the concentration for half-maximal inhibition (IC50) in assay [3] is 2.21 nM.

As to `Cc1nc(-c2cc3c(-c4ccncc4)nccc3[nH]c2=O)no1` [Example 94, 3-(5-Methyl-1,2,4-oxadiazol-3-yl)-5-(4-pyridyl)-1,6-naphthyridin-2(1H)-one], the responders at 50 mg/kg in assay [1] is 80%. In addition, the “TBPS binding Variation Rate” value in assay [2] was 34%. The IC50 in assay [3] was found to be 4.49 nM.

Turning to `CCc1c(C(=O)OC)ncc2[nH]c3cc(OC)c(OC)cc3c12` [DMCM, methyl-6,7-dimethoxy-4-ethyl-β-carboline-3-carboxylate], the “uptake of Cl ion into cells” value in assay [4] was “increased”.

With `Cc1nc(-c2cc3c(-c4ccc(F)cc4)nccc3[nH]c2=O)no1` [Example 6], the responders at 100 mg/kg in assay [1] was 80%. Also, the “TBPS binding Variation Rate” value in assay [2] turned out to be 15%. Also, the IC50 in assay [3] was found to be 2.98 nM.

`Cc1nc(-c2cc3c(-c4ccccc4C)nccc3[nH]c2=O)no1` [Example 89, 3-(5-Methyl-1,2,4-oxadiazol-3-yl)-5-(2-methylphenyl)-1,6-naphthyridin-2(1H)-one]: the responders at 50 mg/kg in assay [1] is 100%. Further, in assay [2], the “TBPS binding Variation Rate” value is on record as 22%. For the same compound, in assay [3], the 50% inhibitory concentration (IC50) was 10.5 nM.

Consider `COc1ccc(-c2nccc3[nH]c(=O)c(-c4noc(C)n4)cc23)cc1` [Example 11, 3-(5-Methyl-1,2,4-oxadiazol-3-yl)-5-(4-methoxyphenyl)-1,6-naphthyridin-2(1H)-one], for which, in assay [1], the responders at 10 mg/kg was 80%. For the same compound, the “TBPS binding Variation Rate” value in assay [2] stood at 21%. The IC50 in assay [3] is 9.77 nM.

`CNC(=O)c1cc2c(cn1)[nH]c1ccccc12` [FG7142, N-methyl-β-carboline-3-carboxamide]: the “uptake of Cl ion into cells” value in assay [4] was “increased”.

Take `CCc1noc(-c2cc3c(-c4cccs4)nccc3[nH]c2=O)n1` [Example 173, 3-(3-ethyl-1,2,4-oxadiazol-5-yl)-5-(2-thienyl)-1,6-naphthyridin-2(1H)-one]: in assay [1], the responders at 20 mg/kg is 100%. Further, in assay [2], the “TBPS binding Variation Rate” value is on record as 18%. In addition, the IC50 in assay [3] was 0.94 nM.

`CCCc1nccc2[nH]c(=O)c(-c3nc(CC)no3)cc12` [Example 192]: the responders at 100 mg/kg in assay [1] is 100%. Also, in assay [2], the “TBPS binding Variation Rate” value is recorded as 13%. Further, in assay [3], the IC50 was determined as 4.22 nM.

Consider `Cc1cccc(-c2nccc3[nH]c(=O)c(-c4nc(C)no4)cc23)c1` [Example 183, 3-(3-Methyl-1,2,4-oxadiazol-5-yl)-5-(3-methylphenyl)-1,6-naphthyridin-2(1H)-one], for which the responders at 20 mg/kg in assay [1] was 80%. Moreover, the “TBPS binding Variation Rate” value in assay [2] is recorded as 8%. Also, in assay [3], the IC50 was 1.55 nM.

In the case of `COc1cccc(-c2nccc3[nH]c(=O)c(-c4nc(C)no4)cc23)c1` [Example 186, 3-(3-Methyl-1,2,4-oxadiazol-5-yl)-5-(3-methoxyphenyl)-1,6-naphthyridin-2(1H)-one], the responders at 50 mg/kg in assay [1] is 80%. For the same compound, the “TBPS binding Variation Rate” value in assay [2] is 21%. In addition, in assay [3], the IC50 is 1.55 nM.

For the compound `NCc1cc(=O)[nH]o1` [Muscimol], the “uptake of Cl ion into cells” value in assay [4] is on record as “decreased”.

Take `CCc1noc(-c2cc3c(-c4ccncc4)nccc3[nH]c2=O)n1` [Example 213, 3-(3-Ethyl-1,2,4-oxadiazol-5-yl)-5-(4-pyridyl)-1,6-naphthyridin-2(1H)-one]: the responders at 10 mg/kg in assay [1] was 100%. Further, the “TBPS binding Variation Rate” value in assay [2] is listed as 26%. Moreover, the IC50 in assay [3] is 2.07 nM.

Consider `CCc1nc(-c2cc3c(-c4ccsc4)nccc3[nH]c2=O)no1` [Example 105], for which, in assay [1], the responders at 50 mg/kg is 80%. The “TBPS binding Variation Rate” value in assay [2] is 25%. The IC50 in assay [3] came to 1.08 nM.

With `Cc1nc(-c2cc3c(-c4cccc(F)c4)nccc3[nH]c2=O)no1` [Example 5], in assay [1] (5 mg/kg), the responders at 5 mg/kg was 100%. Moreover, the “TBPS binding Variation Rate” value in assay [2] stood at 21%. The IC50 in assay [3] worked out at 1.64 nM.
